# Source: patent US20230270755A1, “COMBINATION OF MEDICATIONS IN A PARENTERAL DOSAGE FORM FOR LONG-TERM ANAESTHESIA” (PHARMAFINA ILAC SATIS VE PAZARLAMA ANONIM SIRKETI, priority 2020, published 2023)
# Experiments:
# [1] = Ropivacaine pharmacokinetics and duration of effect (literature review); type: in vivo; conditions: single dose; additional doses required for longer action
# Protocol: Ropivacaine is preferably used as the hydrochloride salt and S-enantiomer thereof for acute pain management and surgical anesthesia. […] Therefore, ropivacaine loses its sensible effect within about 4 hours and additional doses are required for a longer action.
# [2] = administered intravenously, cited from earlier work
structure (smiles),measurement,setting,value
CCCN1CCCC[C@H]1C(=O)Nc1c(C)cccc1C [Ropivacaine],time within which sensible effect is lost,[1],≤ 4 h
same,mean half-life of the initial phase,[2],14 min
same,mean absorption t1/2 of the slower phase,[2]; slower phase,approximately 4.2 hours
